Test [1] has as its system Plasmodium falciparum. In words: In vitro antimalarial activity for Plasmodium falciparum BHz26/86. In kind it is functional, organism-based.
For test [2], the system named is Plasmodium falciparum. Description: In vitro antimalarial activity for Plasmodium falciparum D6. In kind it is functional, organism-based.
Test [3] concerns Plasmodium falciparum. In words: In vitro antimalarial activity for Plasmodium falciparum W2. The format is functional, organism-based.
Test [4] relates to Plasmodium falciparum. In words: In vitro antimalarial activity for Plasmodium falciparum HB3. In kind it is functional, organism-based.
In test [5] the test system is Plasmodium berghei. In words: Inhibition of Plasmodium berghei infection in mice (Mus musculus) at 200 mg/kg peroral dose (expt 1). Conditions: route oral. In kind it is functional.
Test [6] relates to Plasmodium berghei. In words: Inhibition of Plasmodium berghei infection in mice (Mus musculus) at 200 mg/kg peroral dose (expt 2). In kind it is functional. As to conditions: route oral.
Test [7] deals with Plasmodium berghei. Description: Inhibition of Plasmodium berghei infection in mice (Mus musculus) at 25 mg/kg peroral dose (expt 2). Conditions: route oral. The format is functional.
Test [8] concerns Plasmodium berghei. In words: Inhibition of Plasmodium berghei in mice (Mus musculus) after 15 mg/kg subcutaneous dose (experiment 1). The format is functional. As to conditions: sc.
For test [9], the system named is Plasmodium berghei. Description: Inhibition of Plasmodium berghei infection in mice (Mus musculus) at 15 mg/kg subcutaneous dose (experiment 2). As to conditions: sc. The format is functional.
Test [10] deals with Plasmodium berghei. Description: Inhibition of Plasmodium berghei infection in mice (Mus musculus) at 15 mg/kg subcutaneous dose (experiment 3). The format is functional. As to conditions: sc.
Test [11] relates to Plasmodium berghei. In words: Inhibition of Plasmodium berghei infection in mice (Mus musculus) at 25 mg/kg peroral dose (experiment 1). In kind it is functional. Conditions: route oral.
Test [12] has as its system Plasmodium berghei. Description: Inhibition of Plasmodium berghei infection in mice (Mus musculus) at 100 mg/kg subcutaneous dose (expt 1). In kind it is functional. Conditions: sc.
The test system of test [13] is Plasmodium berghei. In words: Inhibition of Plasmodium berghei infection in mice (Mus musculus) at 100 mg/kg subcutaneous dose (experiment 2). As to conditions: sc. In kind it is functional.
In test [14] the test system is Plasmodium berghei. Description: Inhibition of Plasmodium berghei infection in mice (Mus musculus) at 100 mg/kg subcutaneous dose (expt 3). In kind it is functional. As to conditions: sc.
In test [15] the test system is Plasmodium berghei. Description: Inhibition of Plasmodium berghei infection in mice (Mus musculus) at 200 mg/kg subcutaneous dose (experiment 1). The format is functional. As to conditions: sc.
The test system of test [16] is Plasmodium berghei. Description: Inhibition of Plasmodium berghei infection in mice (Mus musculus) at 200 mg/kg subcutaneous dose (expt 3). In kind it is functional. As to conditions: sc.
The subject of test [17] is Plasmodium berghei. In words: Inhibition of Plasmodium berghei infection in mice (Mus musculus) at 200 mg/kg subcutaneous dose (expt 2). The format is functional. Conditions: sc.

As usually defined, the IC50 is the concentration that inhibits the measured activity by half. Low readings indicate inhibition by little substance, high ones a need for much substance. As to `CC1(C)CCc2c(c3ccccc3c3nc4ccccc4nc23)O1`, the IC50 in [1], in [2], in test [3] and in [4] was over 20 µM in each case.
For the compound `c1ccc2c(c1)ccc1nc3ccccc3nc12` [BENZO[A]PHENAZINE], the IC50 in test [1], in test [2], in test [3] and in test [4] was over 20 µM throughout.
The term inhibition in vivo denotes the change of the read-out against control, counted positive when it falls. Read a high inhibition in vivo as strong suppression. On to `CC(C)=CCC1=C(O)C(=O)c2ccccc2C1=O` [LAPACHOL], for which the inhibition in vivo at 200 mg/kg in [5] and in test [6] was 0% each time.
With `C=CCC1Cc2c(c3ccccc3c3nc4ccccc4nc23)OC1(C)C` (configuration not stated), the IC50 in test [1], in test [2], in test [3] and in [4] was over 20 µM throughout.
For the compound `CCN(CC)CCCC(C)Nc1ccnc2cc(Cl)ccc12` (configuration not stated) [CHLOROQUINE], the inhibition in vivo at 25 mg/kg was determined as 98% in test [7] and 99% in test [11]. Besides, the inhibition in vivo at 15 mg/kg in test [8], in test [9] and in test [10] was 99% throughout.
As to `CC1(C)CCC2=C(O1)c1ccccc1C(=O)C2=O` [LAPACHONE], the inhibition in vivo at 200 mg/kg is 28% in test [5] and 34% in [6].
In the case of `CC1(C)Oc2c(c3nc4ccccc4nc3c3ccccc23)CC1Br` (configuration not stated), the inhibition in vivo at 200 mg/kg in [5] came out at 11%; in test [6] it was 10%; in test [15], 0%; in [16], 0%; in [17] it was 0%. Besides, the inhibition in vivo at 100 mg/kg in test [12], in test [13] and in test [14] was 0% in each case. For the same compound, the IC50 in test [1] is 1.9 µM; in test [2], 4.07 µM; in test [3], 3.04 µM; in test [4], 8.75 µM.
Consider `CC1(C)Oc2c(c3nc4ccccc4nc3c3ccccc23)CC1S(=O)(=O)O` (configuration not stated), for which the inhibition in vivo at 200 mg/kg in test [5] stood at 33%; in [6], 36%; in [15], 50%; in [16] it was 98%; in test [17] it was 40%. Moreover, the inhibition in vivo at 100 mg/kg in [12] is 34%; in test [13], 31%. The IC50 in test [1] was 1.75 µM; in [2], 2.43 µM; in [3] it was 1.67 µM; in test [4], 6.14 µM.
With `CC1(C)Oc2c(c3nc4ccccc4nc3c3ccccc23)CC1I` (configuration not stated), the IC50 is 2.3 µM in [1], 4.26 µM in test [2], 3.22 µM in [3] and 6.65 µM in test [4].
In the case of `CC(C)=CCc1c(O)c2ccccc2c2nc3ccccc3nc12`, the 50% inhibitory concentration (IC50) in [1] is 3.14 µM; in test [2], 3.72 µM; in [3] it was 3.54 µM; in test [4] it was 9.44 µM.

(Values after ChEMBL document CHEMBL1147584, “Antimalarial activity of phenazines from lapachol, beta-lapachone and its derivatives against Plasmodium falciparum in vitro and Plasmodium berghei in vivo” (Bioorg Med Chem Lett, 2004).)
